The text below walks through data of US12152038B2, “Vasopressin receptor antagonists and products and methods related thereto” (Neumora Therapeutics, Inc., priority 2017, dated 2024).

pIC50: −log10 of the molar value.

The target in the assay is T1, human Arginine Vasopressin Receptor 1b (AVPR1b) (Homo sapiens, UniProt P47901).
T1 construct: expressed in transfected cells; host or cells: CHO (CHO-AVPR1b, kept under G418 selection)
T1 sequence (P47901 1-424): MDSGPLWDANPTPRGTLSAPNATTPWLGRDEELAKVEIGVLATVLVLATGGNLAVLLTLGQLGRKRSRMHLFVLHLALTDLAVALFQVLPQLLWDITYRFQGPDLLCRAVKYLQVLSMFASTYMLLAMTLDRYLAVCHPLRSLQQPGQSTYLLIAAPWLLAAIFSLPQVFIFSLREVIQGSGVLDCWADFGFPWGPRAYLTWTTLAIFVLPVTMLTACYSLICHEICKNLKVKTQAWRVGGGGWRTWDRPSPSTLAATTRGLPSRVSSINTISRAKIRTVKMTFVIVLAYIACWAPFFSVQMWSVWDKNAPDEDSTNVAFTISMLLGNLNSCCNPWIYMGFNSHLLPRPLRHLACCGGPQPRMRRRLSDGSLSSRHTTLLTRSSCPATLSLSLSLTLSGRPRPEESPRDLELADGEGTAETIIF
Kind of assay: Vasopressin V1b receptor antagonist assay (FLIPR calcium, CHO-AVPR1b cells). Format: cell-based. In outline: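 CHO cells expressing human AVPR1b, loaded with Calcium-6 dye, were given compound (10-point, 1:3) for 15 min at 37 °C. Then AVP was added at its daily-determined EC80 in HBSS/HEPES. FLIPR fluorescence read for 3 min; antagonism seen as reduced AVP calcium response.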
Usually pIC50 stands for the IC50 on a negative log10 scale, so that one unit is a factor of ten. As to `CC1COc2cc(Cl)ccc2N1C(=O)N1CC2(C1)CN(c1ccc(F)cn1)C2` (single isomer, unassigned) [1-73-A], the pIC50 is at most 6.00.
Take `Cc1nccc(N2CC3(CN(C(=O)N4c5ccc(Cl)cc5OCC4C)C3)C2)n1` (centres unmarked) [21-8]: the pIC50 is at most 6.00.
As for `CC1COc2cc(F)ccc2N1C(=O)N1CC2(C1)CN(c1cnccn1)C2` (single isomer, unassigned) [1-65-B], the pIC50 was at most 6.00.
As for `O=C(N1CC2(C1)CN(c1cccnc1)C2)N1CCOc2cc(Cl)ccc21` [1-72], the figure is at most 6.00; as for `Cc1cc(F)nc(N2CC3(CN(C(=O)N4CCOc5cc(Cl)ccc54)C3)C2)c1` [1-45], at most 6.00; as for `CC1COc2cc(Cl)ccc2N1C(=O)N1CC2(C1)CN(c1ccccn1)C2` (single isomer, unassigned) [1-60-B], at most 6.00.
Turning to `N#Cc1ccnc(N2CC3(CN(C(=O)N4CCOc5cc(Cl)ccc54)C3)C2)c1` [1-53], the pIC50 was at most 6.00.
On to `O=C(N1CC2(C1)CN(c1cc(F)cc(F)n1)C2)N1CCOc2cc(Cl)ccc21` [1-51], for which the pIC50 is at most 6.00.
`CC1COc2cc(F)ccc2N1C(=O)N1CC2(C1)CN(c1ncccc1F)C2` (single isomer, unassigned) [1-67-A]: the pIC50 is at most 6.00.
Turning to `Cc1cncc(N2CC3(CN(C(=O)N4c5ccc(Cl)cc5OCC4C)C3)C2)n1` (centres unmarked) [21-3], the pIC50 was at most 6.00.
On to `Cc1nc(N2CC3(CN(C(=O)N4CCOc5cc(Cl)ccc54)C3)C2)ccc1F` [1-30], for which the negative logarithm of the IC50 (pIC50) is at most 6.00.
In the case of `CCC1COc2cc(Cl)ccc2N1C(=O)N1CC2(C1)CN(c1ccc(F)cn1)C2` (single isomer, unassigned) [1-55-B], the pIC50 is at most 6.00.
As for `CC1COc2cc(Cl)ccc2N1C(=O)N1CC2(C1)CN(c1ccccn1)C2` (centres unmarked) [1-60], the pIC50 is at most 6.00.
Consider `CCc1cnc(N2CC3(CN(C(=O)N4c5ccc(Cl)cc5OCC4C)C3)C2)nc1` (centres unmarked) [21-9], for which the pIC50 is at most 6.00.
As for `CC1COc2cc(Cl)ccc2N1C(=O)N1CC2(C1)CN(c1ncc(F)cn1)C2` (single isomer, unassigned) [18-2-B], the figure is at most 6.00.
As for `Cc1cc(N2CC3(CN(C(=O)N4c5ccc(Cl)cc5OCC4C)C3)C2)ncn1` (centres unmarked) [21-11], the figure is at most 6.00; as for `O=C(N1CC2(C1)CN(c1ccc(F)cn1)C2)N1CCC(O)c2cc(Cl)ccc21` (single isomer, unassigned) [13-1-B], at most 6.00; as for `COc1nccnc1N1CC2(CN(C(=O)N3CCOc4cc(Cl)ccc43)C2)C1` [1-43], at most 6.00.
For `CC1COc2cc(F)ccc2N1C(=O)N1CC2(C1)CN(c1ncccc1F)C2` (centres unmarked) [1-67], the pIC50 is at most 6.00.
As for `O=C(N1CC2(C1)CN(c1cc(F)ccn1)C2)N1CCOc2cc(Cl)ccc21` [1-70], the figure is at most 6.00; as for `CC1COc2cc(Cl)ccc2N1C(=O)N1CC2(C1)CN(c1nccc(C(F)(F)F)n1)C2` (centres unmarked) [21-10], at most 6.00; as for `O=C(N1CC2(C1)CN(c1cnc(F)cn1)C2)N1CCOc2cc(Cl)ccc21` [1-18], at most 6.00.
As for `Cc1cnc(N2CC3(CN(C(=O)N4c5ccc(Cl)cc5OCC4C)C3)C2)nc1` (single isomer, unassigned) [20-13-B], the pIC50 was at most 6.00.
`CC1COc2cc(Cl)ccc2N1C(=O)N1CC2(C1)CN(c1cnccn1)C2` (single isomer, unassigned) [1-58-B]: the pIC50 was at most 6.00.
As for `CC1COc2cc(Cl)ccc2N1C(=O)N1CC2(C1)CN(c1ncccc1C#N)C2` (centres unmarked) [21-2], the figure is at most 6.00; as for `N#Cc1cccc(N2CC3(CN(C(=O)N4CCOc5cc(Cl)ccc54)C3)C2)n1` [1-39], at most 6.00; as for `Cc1cncc(N2CC3(CN(C(=O)N4CCOc5cc(Cl)ccc54)C3)C2)n1` [1-22], at most 6.00.
As to `O=C(N1CC2(C1)CN(c1ccc(F)cn1)C2)N1CCOc2cc(F)ccc21` [1-64], the negative-log IC50 (pIC50) is at most 6.00.
As for `CC1COc2cc(Cl)ccc2N1C(=O)N1CC2(C1)CN(c1ncncc1F)C2` (centres unmarked) [21-5], the pIC50 was at most 6.00.
`CC1COc2cc(Cl)ccc2N1C(=O)N1CC2(C1)CN(c1ncccc1F)C2` (single isomer, unassigned) [1-57-A]: the pIC50 is at most 6.00.
As to `Cc1cnc(N2CC3(CN(C(=O)N4CCOc5cc(Cl)ccc54)C3)C2)cn1` [1-20], the pIC50 is at most 6.00.
Take `CC1COc2cc(Cl)ccc2N1C(=O)N1CC2(C1)CN(c1cc(=O)n(C)cn1)C2` (single isomer, unassigned) [20-14-B]: the negative logarithm of the IC50 (pIC50) is at most 6.00.
With `O=C(N1CC2(C1)CN(c1ccc(F)c(F)n1)C2)N1CCOc2cc(Cl)ccc21` [1-49], the negative-log IC50 (pIC50) was at most 6.00.
For `CC1COc2cc(Cl)ccc2N1C(=O)N1CC2(C1)CN(c1noc3ccccc13)C2` (centres unmarked) [21-1, (6-(benzo[d]isoxazol-3-yl)-2,6-diazaspiro[3.3]heptan-2-yl)(7-chloro-3-methyl-2,3-dihydro-4H-benzo[b][1,4]oxazin-4-yl)methanone], the pIC50 is at most 6.00.
For the molecule `CC1COc2cc(Cl)ccc2N1C(=O)N1CC2(C1)CN(c1ccc(F)cn1)C2` (single isomer, unassigned) [1-73-B], the pIC50 is at most 6.00.
For `Cc1cccc(N2CC3(CN(C(=O)N4CCOc5cc(Cl)ccc54)C3)C2)n1` [1-3], the pIC50 is at most 6.00.
As for `O=C(N1CC2(C1)CN(c1cccnn1)C2)N1CCOc2cc(Cl)ccc21` [1-71], the figure is at most 6.00; as for `CC1COc2cc(Cl)ccc2N1C(=O)N1CC2(C1)CN(c1nn(C)c3ncccc13)C2` (single isomer, unassigned) [20-15-B], at most 6.00; as for `Cc1cnnc(N2CC3(CN(C(=O)N4c5ccc(Cl)cc5OCC4C)C3)C2)c1` (centres unmarked) [21-4], at most 6.00.
Turning to `COc1ccc(N2CC3(CN(C(=O)N4CCOc5cc(Cl)ccc54)C3)C2)nc1` [1-68], the negative logarithm of the IC50 (pIC50) was at most 6.00.
Turning to `O=C(N1CC2(C1)CN(c1cccc(F)n1)C2)N1CCOc2cc(Cl)ccc21` [1-69], the pIC50 was at most 6.00.
Take `COc1ccc2c(c1)OCC(C)N2C(=O)N1CC2(C1)CN(c1ccc(F)cn1)C2` (single isomer, unassigned) [1-59-B]: the negative logarithm of the IC50 (pIC50) is at most 6.00.
As to `CC1COc2cc(F)ccc2N1C(=O)N1CC2(C1)CN(c1ccccn1)C2` (single isomer, unassigned) [1-66-B], the pIC50 is at most 6.00.
On to `CC1COc2cc(Cl)ccc2N1C(=O)N1CC2(C1)CN(c1ccncn1)C2` (centres unmarked) [21-6], for which the pIC50 was at most 6.00.
